According to ChEMBL document CHEMBL4152252, “Fluorine walk: The impact of fluorine in quinolone amides on their activity against African sleeping sickness” (Eur J Med Chem, 2018):
pIC50: −log10 of the molar value. Converted amounts (≈) assume the structure as drawn. One block for each compound: values may come before it.

Experiments:
[1] = test system: Trypanosoma brucei brucei; experiment: Antitrypanosomal activity against trypomastigote forms of Trypanosoma brucei brucei TC 221 assessed as parasite growth inhibition after 72 hrs by Alamar blue assay; format: functional, organism-based; conditions: TC 221, 72 h
[2] = (§1) Drug metabolism in rat liver microsomes assessed as CYP450-mediated (w-1)-oxidation/alipathic hydroxylation by measuring 3-(benzylcarbamoyl)-5-fluoro-1-(3-hydroxybutyl)-7-morpholino-4-oxo-1,4-dihydroquinolinium formation at 100 uM using NADPH/H+ as co-factor after 30 to 90 mins by LC/MSD iom trap method; format: ADME
[3] = Thermodynamic equilibrium solubility of the compound in pH 7.4 phosphate buffered saline after 24 hrs by shake flask method; format: physicochemical; conditions: read-out: Therm_solubility
[4] = as §1, with “cytosol” for “microsomes”; format: ADME, subcellular
[5] = Cytotoxicity against mouse J774.1 cells after 24 hrs by Alamar blue assay; format: cell-based
[6] = Octanol/water partition co-efficient, log P of the compound by HPLC based method; format: physicochemical
[7] = Half life in rat liver cytosol; format: ADME, subcellular
[8] = test system: Trypanosoma brucei brucei; experiment: Antitrypanosomal activity against trypomastigote forms of Trypanosoma brucei brucei TC 221 assessed as parasite growth inhibition after 48 hrs by Alamar blue assay; format: functional, organism-based; conditions: TC 221, 48 h
[9] = Drug metabolism in rat liver microsomes assessed as CYP450-mediated amide hydrolysis oxidative N-dealkylation by measuring 3-carbamoyl-5-fluoro-1-methyl-7-morpholino-4-oxo-1,4-dihydroquinolinium formation at 100 uM using NADPH/H+ as co-factor after 30 to 90 mins by LC/MSD iom trap method; format: ADME
[10] = Drug metabolism in rat liver cytosol assessed as CYP450-mediated oxidative N-dealkylation by measuring 3-(benzylcarbamoyl)-1-ethyl-5-fluoro-7-morpholino-4-oxo-1,4-dihydroquinolinium formation at 100 uM using NADPH/H+ as co-factor after 30 to 90 mins by LC/MSD iom trap method; format: ADME, subcellular
[11] = Drug metabolism in rat liver microsomes assessed as CYP450-mediated amide hydrolysis amidase by measuring 1-butyl-3-carbamoyl-5-fluoro-7-morpholino-4-oxo-1,4-dihydroquinolinium formation at 100 uM using NADPH/H+ as co-factor after 30 to 90 mins by LC/MSD iom trap method; format: ADME
[12] = Drug metabolism in rat liver cytosol assessed as CYP450-mediated amide hydrolysis oxidative N-dealkylation by measuring 3-carbamoyl-5-fluoro-1-methyl-7-morpholino-4-oxo-1,4-dihydroquinolinium formation at 100 uM using NADPH/H+ as co-factor after 30 to 90 mins by LC/MSD iom trap method; format: ADME, subcellular
[13] = Drug metabolism in rat liver microsomes assessed as CYP450-mediated oxidative N-dealkylation by measuring 3-(benzylcarbamoyl)-1-ethyl-5-fluoro-7-morpholino-4-oxo-1,4-dihydroquinolinium formation at 100 uM using NADPH/H+ as co-factor after 30 to 90 mins by LC/MSD iom trap method; format: ADME
[14] = Selectivity index, ratio of CC50 for mouse J774.1 cells to IC50 for trypomastigote forms of Trypanosoma brucei brucei TC 221 assessed as parasite growth inhibition after 48 hrs; format: toxicity; conditions: read-out: Ratio CC50/IC50
[15] = Drug metabolism in rat liver cytosol assessed as CYP450-mediated amide hydrolysis amidase by measuring 1-butyl-3-carbamoyl-5-fluoro-7-morpholino-4-oxo-1,4-dihydroquinolinium formation at 100 uM using NADPH/H+ as co-factor after 30 to 90 mins by LC/MSD iom trap method; format: ADME, subcellular
[16] = Stability in rat liver cytosol assessed as compound turnover per mg protein; format: ADME, subcellular
[17] = Drug level in rat liver microsomes assessed as CYP450-mediated metabolite formation treated with N-benzyl-1-butyl-5-fluoro-7-morpholino-4-oxo-1,4-dihydroquinoline-3-carboxamide at 100 uM using NADPH/H+ as co-factor after 30 to 90 mins by LC/MSD iom trap method; format: ADME
[18] = Drug level in rat liver cytosol assessed as CYP450-mediated metabolite formation treated with N-benzyl-1-butyl-5-fluoro-7-morpholino-4-oxo-1,4-dihydroquinoline-3-carboxamide at 100 uM using NADPH/H+ as co-factor after 30 to 90 mins by LC/MSD iom trap method; format: ADME, subcellular
[19] = Solubility of the compound in RPMI-1640 medium; format: physicochemical
[20] = Drug level in rat liver cytosol assessed as CYP450-mediated metabolite formation treated with 1-Butyl-5-fluoro-N-(4-fluorobenzyl)-7-morpholino-4-oxo-1,4-dihydroquinoline-3-carboxamide at 100 uM using NADPH/H+ as co-factor after 30 to 90 mins by LC/MSD iom trap method; format: ADME, subcellular
[21] = Drug level in rat liver microsomes assessed as CYP450-mediated metabolite formation treated with 1-Butyl-5-fluoro-N-(4-fluorobenzyl)-7-morpholino-4-oxo-1,4-dihydroquinoline-3-carboxamide at 100 uM using NADPH/H+ as co-factor after 30 to 90 mins by LC/MSD iom trap method; format: ADME
[22] = Drug uptake in brain of B6/J mouse at 19.3 +/- 2.3 MBq, iv after 60 mins by autoradiography; format: ADME, organism-based; conditions: in vivo, 1 h
[23] = Drug level in rat liver cytosol assessed as CYP450-mediated metabolite formation treated with 1-Butyl-6-fluoro-N-(4-fluorobenzyl)-7-morpholino-4-oxo-1,4-dihydroquinoline-3-carboxamide at 100 uM using NADPH/H+ as co-factor after 30 to 90 mins by LC/MSD iom trap method; format: ADME, subcellular
[24] = Drug level in rat liver microsomes assessed as CYP450-mediated metabolite formation treated with 1-Butyl-6-fluoro-N-(4-fluorobenzyl)-7-morpholino-4-oxo-1,4-dihydroquinoline-3-carboxamide at 100 uM using NADPH/H+ as co-factor after 30 to 90 mins by LC/MSD iom trap method; format: ADME

Structure (SMILES): CCCCn1cc(C(=O)NCc2ccccc2)c(=O)c2c(F)cc(N3CCOCC3)cc21
pIC50 [1]: 7.10 | Drug metabolism [2]: Metabolite_Detected | solubility thermodynamic at 24 h [3]: 0.12 µg/mL (≈ 0.274 µM) | Drug metabolism [4]: Metabolite_Detected | CC50 at 24 h [5]: > 100 µM | logP [6]: 3.36 | half-life [7]: 7.2 h | pIC50 [8]: 7.30 | Drug metabolism [9]: Metabolite_Detected | Drug metabolism [10]: Metabolite_Detected | Drug metabolism [11]: Metabolite_Detected | Drug metabolism [12]: Metabolite_Detected | Drug metabolism [13]: Metabolite_Detected | selectivity ratio at 48 h [14]: > 2000 | Drug metabolism [15]: Metabolite_Detected | Drug metabolism [16]: 4.3 pmol/min/mg protein

Structure (SMILES): CCCCn1cc(C(=O)NCc2ccc(F)cc2F)c(=O)c2cc(F)c(N3CCOCC3)cc21
pIC50 [1]: 7.52 | CC50 at 24 h [5]: 59.6 µM | pIC50 [8]: 7.52 | selectivity ratio at 48 h [14]: 1990 | Drug metabolism [16]: 5.94 pmol/min/mg protein

Drug metabolism [17]: Metabolite_Detected | Drug metabolism [18]: Metabolite_Detected
Structure (SMILES): CCn1cc(C(=O)NCc2ccccc2)c(=O)c2c(F)cc(N3CCOCC3)cc21

Structure (SMILES): CCCCn1cc(C(=O)NCc2ccccc2)c(=O)c2cc(F)c(N3CCOCC3)c(F)c21
pIC50 [1]: 6.70 | solubility [19]: Insoluble | CC50 at 24 h [5]: > 20 µM | logP [6]: 4.57 | pIC50 [8]: 7.22 | selectivity ratio at 48 h [14]: > 333

Structure (SMILES): CCCCn1cc(C(=O)NCc2ccccc2)c(=O)c2ccc(N3CCOCC3)cc21
pIC50 [1]: 6.70 | solubility thermodynamic at 24 h [3]: 1.36 µg/mL (≈ 3.24 µM) | CC50 at 24 h [5]: > 100 µM | logP [6]: 3.51 | pIC50 [8]: 6.64 | selectivity ratio at 48 h [14]: > 435

Drug metabolism [20]: Metabolite_Detected | Drug metabolism [21]: Metabolite_Detected
Structure (SMILES): CCCCn1cc(C(=O)O)c(=O)c2c(F)cc(N3CCOCC3)cc21

Structure (SMILES): O=C(NCc1ccccc1)c1cn(CCC[18F])c2cc(N3CCOCC3)c(F)cc2c1=O
Drug uptake [22]: Active

Drug metabolism [17]: Metabolite_Detected | Drug metabolism [18]: Metabolite_Detected
Structure (SMILES): CCCCn1cc(C(N)=O)c(=O)c2c(F)cc(N3CCOCC3)cc21

Structure (SMILES): O=C(NCc1ccccc1)c1cn(CCCO)c2cc(N3CCOCC3)c(F)cc2c1=O
pIC50 [1]: 6.26 | solubility thermodynamic at 24 h [3]: 18.7 µg/mL (≈ 42.5 µM) | CC50 at 24 h [5]: 43.1 µM | logP [6]: 3.04 | pIC50 [8]: 6.57 | selectivity ratio at 48 h [14]: 160

Drug metabolism [20]: Metabolite_Detected | Drug metabolism [21]: Metabolite_Detected
Structure (SMILES): Cn1cc(C(=O)NCc2ccc(F)cc2)c(=O)c2c(F)cc(N3CCOCC3)cc21

Structure (SMILES): CCCCn1cc(C(=O)NCc2ccccc2)c(=O)c2ccc(N3CCOCC3)c(F)c21
pIC50 [1]: 6.07 | solubility [19]: Insoluble | solubility thermodynamic at 24 h [3]: 0.23 µg/mL (≈ 0.526 µM) | CC50 at 24 h [5]: > 25 µM | logP [6]: 4.09 | pIC50 [8]: 6.10 | selectivity ratio at 48 h [14]: > 32

Structure (SMILES): CCCCn1cc(C(=O)NCc2ccccc2)c(=O)c2cc(OC)c(N3CCOCC3)cc21
pIC50 [1]: 6.62 | solubility thermodynamic at 24 h [3]: 2.73 µg/mL (≈ 6.07 µM) | CC50 at 24 h [5]: 42 µM | logP [6]: 3.73 | pIC50 [8]: 6.51 | selectivity ratio at 48 h [14]: 135

Drug metabolism [20]: Metabolite_Detected | Drug metabolism [21]: Metabolite_Detected
Structure (SMILES): O=C(NCc1ccc(F)cc1)c1c[nH]c2cc(N3CCOCC3)cc(F)c2c1=O

Structure (SMILES): CCCCn1cc(C(=O)NCc2ccccc2)c(=O)c2c(OC)cc(N3CCOCC3)cc21
pIC50 [1]: 6.19 | CC50 at 24 h [5]: 51.8 µM | pIC50 [8]: 6.12 | selectivity ratio at 48 h [14]: 68

Drug metabolism [23]: Metabolite_Detected | Drug metabolism [24]: Metabolite_Detected
Structure (SMILES): O=C(NCc1ccc(F)cc1)c1c[nH]c2cc(N3CCOCC3)c(F)cc2c1=O

Structure (SMILES): CC(O)CCn1cc(C(=O)NCc2ccc(F)cc2)c(=O)c2cc(F)c(N3CCOCC3)cc21 (stereo unspecified)
Drug metabolism [23]: Metabolite_Detected | Drug metabolism [24]: Metabolite_Detected

Drug metabolism [17]: Metabolite_Detected | Drug metabolism [18]: Metabolite_Detected
Structure (SMILES): Cn1cc(C(N)=O)c(=O)c2c(F)cc(N3CCOCC3)cc21

Drug metabolism [20]: Metabolite_Detected | Drug metabolism [21]: Metabolite_Detected
Structure (SMILES): CCn1cc(C(=O)NCc2ccc(F)cc2)c(=O)c2c(F)cc(N3CCOCC3)cc21

Structure (SMILES): CC(O)CCn1cc(C(=O)NCc2ccccc2)c(=O)c2c(F)cc(N3CCOCC3)cc21 (stereo unspecified)
Drug metabolism [17]: Metabolite_Detected | Drug metabolism [18]: Metabolite_Detected

Structure (SMILES): CCCCn1cc(C(=O)NCc2ccccc2)c(=O)c2c(N(C)C)cc(N3CCOCC3)cc21
pIC50 [1]: 5.32 | CC50 at 24 h [5]: 44 µM | pIC50 [8]: 5.73 | selectivity ratio at 48 h [14]: 24

Structure (SMILES): O=C(NCc1ccccc1)c1cn(CCCOCc2ccccc2)c2cc(N3CCOCC3)c(F)cc2c1=O
CC50 at 24 h [5]: > 100 µM | logP [6]: 3.9

Drug metabolism [23]: Metabolite_Detected | Drug metabolism [24]: Metabolite_Detected
Structure (SMILES): Cn1cc(C(=O)NCc2ccc(F)cc2)c(=O)c2cc(F)c(N3CCOCC3)cc21

Structure (SMILES): CCCCn1cc(C(=O)NCc2ccccc2)c(=O)c2c(F)c(F)c(N3CCOCC3)cc21
pIC50 [1]: 7.52 | solubility [19]: Insoluble | CC50 at 24 h [5]: > 25 µM | logP [6]: 3.97 | pIC50 [8]: 7.40 | selectivity ratio at 48 h [14]: > 625

Drug metabolism [23]: Metabolite_Detected | Drug metabolism [24]: Metabolite_Detected
Structure (SMILES): CCCCn1cc(C(=O)O)c(=O)c2cc(F)c(N3CCOCC3)cc21

Structure (SMILES): O=C(NCc1ccccc1)c1cn(CCCF)c2cc(N3CCOCC3)c(F)cc2c1=O
pIC50 [1]: 6.77 | solubility thermodynamic at 24 h [3]: 1.41 µg/mL (≈ 3.19 µM) | CC50 at 24 h [5]: 42.4 µM | logP [6]: 3.34 | pIC50 [8]: 6.92 | selectivity ratio at 48 h [14]: 353

Structure (SMILES): CCCCn1cc(C(=O)NCc2ccccc2F)c(=O)c2cc(F)c(N3CCOCC3)cc21
pIC50 [1]: 6.34 | CC50 at 24 h [5]: 37 µM | pIC50 [8]: 6.39 | selectivity ratio at 48 h [14]: 90

Structure (SMILES): CCCCn1cc(C(=O)NCc2ccccc2)c(=O)c2cc(F)c(N3CCOCC3)cc21
solubility thermodynamic at 24 h [3]: 0.005 µg/mL (≈ 0.0114 µM) | half-life [7]: 5.8 h | Drug metabolism [16]: 47.11 pmol/min/mg protein

Structure (SMILES): CCCCn1cc(C(=O)NCc2ccccc2)c(=O)c2cc(C(F)(F)F)c(N3CCOCC3)cc21
pIC50 [1]: 6.23 | CC50 at 24 h [5]: 78.6 µM | logP [6]: 4.18 | pIC50 [8]: 6.27 | selectivity ratio at 48 h [14]: 146
